Reference: patent US7851490B2, “Benzimidazole derivatives and their use for modulating the GABAA receptor complex” (Neurosearch A/S, priority 2005, dated 2010)

Target: benzodiazepine binding site on GABAA receptors
Test: In vitro inhibition of 3H-flunitrazepam (3H-FNM) binding
Set-up: species or system rat
Conditions: inhibition of specific binding of 3H-FNM (1 nM), cerebral cortex membranes from male Wistar rats, 40 min at 2° C.
Protocol: In Vitro Inhibition of ^3H-flunitrazepam (^3H-FNM) Binding
The GABA recognition site and the benzodiazepine modulatory unit can selectively be labelled with ^3H-flunitrazepam.
Preparations are performed at 0-4° C. unless otherwise indicated. Cerebral cortex from male Wistar rats (150-200 g) is homogenised for 5-10 sec in 20 ml Tris-HCl (30 mM, pH 7.4) using an Ultra-Turrax homogeniser. The suspension is centrifuged at 27,000×g for 15 min and the pellet is washed three times with buffer (centrifuged at 27,000×g for 10 min). The washed pellet is homogenized in 20 ml of buffer and incubated on a water bath (37° C.) for 30 min to remove endogenous GABA and then centrifuged for 10 min at 27,000×g. The pellet is then homogenized in buffer and centrifuged for 10 min at 27,000×g. The final pellet is resuspended in 30 ml buffer and the preparation is frozen and stored at −20° C.
The membrane preparation is thawed and centrifuged at 2° C. for 10 min at 27,000×g. The pellet is washed twice with 20 ml 50 mM Tris-citrate, pH 7.1 using an Ultra-Turrax homogeniser and centrifuged for 10 min at 27,000×g. The final pellet is resuspended in 50 mM Tris-citrate, pH 7.1 (500 ml buffer per g of original tissue), and then used for binding assays. Aliquots of 0.5 ml tissue are added to 25 μl of test solution and 25 μl of ^3H-FNM (1 nM, final concentration), mixed and incubated for 40 min at 2° C. Non-specific binding is determined using Clonazepam (1 μM, final concentration). After incubation the samples are added 5 ml of ice-cold buffer and poured directly onto Whatman GF/C glass fibre filters under suction and immediately washed with 5 ml ice-cold buffer. The amount of radioactivity on the filters is determined by conventional liquid scintillation counting. Specific binding is total binding minus non-specific binding.
25-75% inhibition of specific binding must be obtained, before calculation of an IC50.
The test value will be given as IC50 (the concentration (μM) of the test substance which inhibits the specific binding of ^3H-FNM by 50%). IC50=(applied test substance concentration, […]

Row | SMILES | IC50
1 | CC(=O)NCc1ccc2c(c1)ncn2-c1cccc(-c2nccs2)c1 [N-[1-(3-Thiazol-2-yl-phenyl)-1H-benzoimidazol-5-ylmethyl]-acetamide] | 24 nM
2 | O=CNCc1ccc2c(c1)ncn2-c1cccc(-c2nccs2)c1 [N-{1-[3-(Thiazol-2-yl)-phenyl]-1H-benzoimidazol-5-ylmethyl}-formamide] | 4.8 nM
3 | NCc1ccc2c(c1)ncn2-c1cccc(-c2nccs2)c1 [C-[1-(3-Thiazol-2-yl-phenyl)-1H-benzoimidazol-5-yl]-methylamine] | 11 nM
